Results published in article PMC9944328 (Nature Communications, 2023).
Where two headings read alike, the source gives them in different places.

System: SSTR2 mutants
Experiment: NanoBiT β-arrestin 1 recruitment assay, HEK293 (SSTR2 mutants);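 for Top: percent of maximal wild-type response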
Assay type: cell-based, human
Set-up: Bottom / Span / Bottom (best-fit) / Span (best-fit) / Best-fit values Bottom / Best-fit values Span / Bottom (best-fit value) / Span (best-fit value):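 percent of maximal wild-type response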
Conditions: for EC50: read-out: EC50
Description: The NanoBiT β-arrestin 1 recruitment assays were carried out according to the method described previously. […] Human full-length SSTR wild-type and mutant vectors were C-terminally fused with a 15-amino acid flexible linker and the small fragment (SmBiT). HEK293 cells were seeded into six-well microplates at a density of 1.0 × 10^6 cells/well and cultured for 24 h at 37 °C with 5% CO2. After that, cells were co-transfected with pcDNA3.1+ vectors encoding SSTR wild-type or mutants and human β-arrestin 1. After transfecting for 24 h, the transfected cells were suspended and seeded into white 96-well plates, and then cultured at 37 °C overnight. After that the medium in each well was exchanged for 90 μl of 0.01% bovine serum albumin containing 20 μl of 50 μM coelenterazine h (Carbosynth) diluted in the HBSS assay buffer and incubated for 40 min at room temperature. Then, ligands diluted in the assay buffer was added to each well and the luminescence intensity was measured using the Synergy H1 microplate reader and detected at room temperature in a time period. All data presented are means of at least three independent experiments.

[1] = best-fit value, T194A-1 (run 1)
[2] = best-fit value, T194A-2 (run 2)
[3] = best-fit value, T194A-3 (run 3)
[4] = best-fit value, V103A-1 (run 1)
[5] = best-fit value, V103A-2 (run 2)
[6] = best-fit value, V103A-3 (run 3)

SMILES: C[C@@H](O)[C@@H]1NC(=O)[C@H](CCCCN)NC(=O)[C@@H](Cc2c[nH]c3ccccc23)NC(=O)[C@H](Cc2ccccc2)NC(=O)[C@@H](NC(=O)[C@H](N)Cc2ccccc2)CSSC[C@@H](C(=O)N[C@H](CO)[C@@H](C)O)NC1=O [octreotide]
- LogEC50 (best-fit value, L99A-3 (run 3)): -6.902
- Span (best-fit value, L99A-3 (run 3)): 131.2
- Top (best-fit value, L99A-3 (run 3)): 128.3
- LogEC50 [1]: -7.278
- Span [1]: 56.43
- EC50 [1]: 52.8 nM
- LogEC50 [2]: -7.381
- Span [2]: 55.9
- EC50 [2]: 41.6 nM
- LogEC50 [3]: -7.29
- Span [3]: 56.81
- EC50 [3]: 51.3 nM
- Bottom [4]: -1.867
- LogEC50 [4]: -7.141
- Span [4]: 86.59
- Top [4]: 84.73
- EC50 [4]: 72.2 nM
- Bottom [5]: -2.214
- LogEC50 [5]: -7.263
- Span [5]: 87.54
- Top [5]: 85.33
- EC50 [5]: 54.6 nM
- Bottom [6]: -2.646
- LogEC50 [6]: -7.193
- Span [6]: 87.08
- Top [6]: 84.44
- EC50 [6]: 64.1 nM
- Bottom (best-fit value, Y50A-1 (run 1)): -0.1631
- LogEC50 (best-fit value, Y50A-1 (run 1)): -8.742
- Span (best-fit value, Y50A-1 (run 1)): 56.29
- Top (best-fit value, Y50A-1 (run 1)): 56.13
- EC50 (best-fit value, Y50A-1 (run 1)): 1.81 nM
- Bottom (best-fit value, Y50A-2 (run 2)): -2.513
- LogEC50 (best-fit value, Y50A-2 (run 2)): -7.952
- Span (best-fit value, Y50A-2 (run 2)): 74.92
- Top (best-fit value, Y50A-2 (run 2)): 72.41
- EC50 (best-fit value, Y50A-2 (run 2)): 11.2 nM
- Bottom (best-fit value, Y50A-3 (run 3)): -0.965
- LogEC50 (best-fit value, Y50A-3 (run 3)): -8.796
- Span (best-fit value, Y50A-3 (run 3)): 58.15
- Top (best-fit value, Y50A-3 (run 3)): 57.19
- EC50 (best-fit value, Y50A-3 (run 3)): 1.6 nM
- Bottom (best-fit, I284A-1): 2.896
- LogEC50 (best-fit, I284A-1): -7.134
- Span (best-fit, I284A-1): 74.77
- Top (best-fit, I284A-1): 77.67
- EC50 (best-fit, I284A-1): 73.4 nM
- Bottom (best-fit, I284A-2): -1.923
- LogEC50 (best-fit, I284A-2): -7.815
- Span (best-fit, I284A-2): 108.7
- Top (best-fit, I284A-2): 106.8
- EC50 (best-fit, I284A-2): 15.3 nM
- Bottom (best-fit, I284A-3): 2.808
- LogEC50 (best-fit, I284A-3): -7.106
- Span (best-fit, I284A-3): 79.8
- Top (best-fit, I284A-3): 82.61
- EC50 (best-fit, I284A-3): 78.4 nM
- LogEC50 (best-fit, P286A-1): -8.053
- Span (best-fit, P286A-1): 62.29
- Top (best-fit, P286A-1): 66.68
- EC50 (best-fit, P286A-1): 8.86 nM
- Bottom (best-fit, P286A-2): 2.819
- LogEC50 (best-fit, P286A-2): -8.168
- Span (best-fit, P286A-2): 59.43
- Top (best-fit, P286A-2): 62.25
- EC50 (best-fit, P286A-2): 6.79 nM
- Bottom (best-fit, P286A-3): 4.198
- LogEC50 (best-fit, P286A-3): -8.213
- Span (best-fit, P286A-3): 84.87
- Top (best-fit, P286A-3): 89.07
- EC50 (best-fit, P286A-3): 6.12 nM
- Bottom (best-fit, S285A-1): 2.2
- LogEC50 (best-fit, S285A-1): -9.537
- Span (best-fit, S285A-1): 70
- Top (best-fit, S285A-1): 72.2
- EC50 (best-fit, S285A-1): 0.29 nM
- Bottom (best-fit, S285A-2): 3.756
- LogEC50 (best-fit, S285A-2): -9.426
- Span (best-fit, S285A-2): 71.47
- Top (best-fit, S285A-2): 75.22
- EC50 (best-fit, S285A-2): 0.375 nM
